Experimental findings from patent publication US7446195B2, “High affinity thiophene-based and furan-based kinase ligands” (Schering Corporation, priority 2005, dated 2008) are described below.

A value given as a limit tells only on which side of the number the result lay.

In this assay the target is CDK-2 (Homo sapiens, UniProt P24941). Kind of assay: CDK-2 inhibition (Table 1; fluorescence polarization displacement assay). Type of assay: binding. The following applies: inhibitory effectiveness toward CDK-2. The procedure, abridged:
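Ki was measured by fluorescence polarization displacement of 50 nM BMS-Alexa Fluor647 tracer from CDK-2 ([…]) or CDK-2/cyclin A ([…]). Buffer was 10 mM Hepes pH 7.5, 150 mM NaCl, 1 mM DTT, with 15 min incubation at room temperature and read at ex 580/em 680 nm. Ki came from nonlinear regression of the displacement curves.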
In general terms: Polarisation of emitted light reports the rotation of a fluorescent probe.
`COc1ccc(C(=O)Nc2ccc(C(=O)N3CCC(c4ccccn4)C3)o2)c(C)c1` (centres unmarked) [Compound 190] showed a 50% inhibitory concentration (IC50) of at least 40 µM.

`O=C(NCCN1CCCC1)c1ccc(C(=O)Nc2ccc(-n3cncn3)cc2)s1` [Compound 52] had an IC50 of 1 to 40 µM.

`COc1ccc(NC(=O)c2ccc(C(=O)N3CCC(c4ccncc4)C3)s2)c(C)c1` (centres unmarked) [Compound 50] registered an IC50 of 1 to 40 µM.

The compound `Cc1ccccc1C(=O)Nc1ccc(C(=O)Nc2ccc(-n3cncn3)cc2)s1` [Compound 34] displayed an IC50 of at most 1 µM.

Regarding `COc1ccc(NC(=O)c2ccc(C(=O)Nc3ccc(N(C)C)cc3)s2)c(C)c1` [Compound 124], the IC50 is at least 40 µM.

Regarding `O=C(Nc1ccc(-n2cncn2)cc1)c1ccc(C(=O)Nc2cc(F)ccc2F)s1` [Compound 166], the IC50 was at least 40 µM.

Compound `COc1ccc(N(C)C(=O)c2ccc(C(=O)Nc3ccc(-n4cncn4)cc3)s2)c(C)c1` [Compound 72] displayed an IC50 of 1 to 40 µM.

Consider `O=C(Nc1ccccc1)c1ccc(C(=O)Nc2ccc(-n3cncn3)cc2)s1` [Compound 89], for which the IC50 is at least 40 µM.

As to `O=C(Nc1ccccc1)c1ccc(C(=O)Nc2ccc(-n3cncn3)cc2)o1` [Compound 45], the half-inhibitory concentration (IC50) fell in the range of 1 to 40 µM.

In turn, `O=C(Nc1ccc(-n2cncn2)cc1)c1ccc(C(=O)N[C@@H]2CCNC2)s1` [Compound 136] returned an IC50 of at least 40 µM.

With `CNCc1ccc(NC(=O)c2ccc(C(=O)Nc3ccc(-n4cncn4)c(F)c3)s2)c(C)c1` [Compound 70], the IC50 was in the range of 1 to 40 µM.

For the compound `O=C(Nc1ccc(-n2cncn2)cc1)c1ccc(C(=O)NC2CCCCC2)o1` [Compound 18], the IC50 was at most 1 µM.

The compound `O=C(Nc1ccc(-n2cncn2)cc1)c1ccc(C(=O)N[C@@H]2CCc3ccccc32)s1` [Compound 113] displayed an IC50 of at least 40 µM.

As to `COc1cccc(NC(=O)c2ccc(C(=O)Nc3ccc(-n4cncn4)cc3)s2)c1` [Compound 157], the IC50 was at least 40 µM.

Compound `COc1ccc(C(=O)Nc2ccc(C(=O)Nc3ccc(-n4ccnc4)cc3)o2)c(C)c1` [Compound 193] returned a half-inhibitory concentration (IC50) of at least 40 µM.

Compound `O=C(Nc1ccc(C(=O)Nc2ccc(-n3cncn3)cc2)o1)c1ccccc1` [Compound 183] had an IC50 of at least 40 µM.

For `Cn1cnc(CCNC(=O)c2ccc(C(=O)Nc3ccc(-n4cncn4)cc3)s2)c1` [Compound 143], the 50% inhibitory concentration (IC50) is at least 40 µM.

For the compound `CN(C(=O)c1ccc(C(=O)Nc2ccc(-n3cncn3)cc2)s1)C1CCCCC1` [Compound 39], the half-inhibitory concentration (IC50) is at most 1 µM.

`COc1ccc(NC(=O)c2ccc(C(=O)Nc3ccc4nc(C)ccc4c3)s2)c(C)c1` [Compound 170] showed an IC50 of at least 40 µM.

Turning to `C[C@H](NC(=O)c1ccc(C(=O)Nc2ccc(-n3cncn3)c(F)c2)o1)C1CCCCC1` [Compound 28], the IC50 is at most 1 µM.

With `O=C(NCCc1c[nH]cn1)c1ccc(C(=O)Nc2ccc(-n3cncn3)cc2)s1` [Compound 103], the IC50 is at least 40 µM.

`O=C(Nc1ccc(-n2cncn2)cc1)c1ccc(NC(=O)C2CCCCC2)s1` [Compound 21] had an IC50 of at most 1 µM.

`O=C(NCCN1CCOCC1)c1ccc(C(=O)Nc2ccc(-n3cncn3)cc2)s1` [Compound 147] gave an IC50 of at least 40 µM.

Consider `CN1CCC(N(C)C(=O)c2ccc(C(=O)Nc3ccc(-n4cncn4)c(F)c3)o2)CC1` [Compound 210], for which the IC50 was at least 40 µM.

In turn, `COc1ccc(C(=O)Nc2ccc(C(=O)N3CCC(c4ccccn4)C3)s2)c(C)c1` (centres unmarked) [Compound 188] registered an IC50 of at least 40 µM.

`COc1ccc(NC(=O)c2ccc(C(=O)Nc3ccc(N4CCOCC4)nc3)s2)c(C)c1` [Compound 133] showed an IC50 of at least 40 µM.

In the case of `COC(=O)c1cc(OC)ccc1NC(=O)c1ccc(C(=O)Nc2ccc(-n3cncn3)cc2)s1` [Compound 75], the IC50 was in the range of 1 to 40 µM.

Take `Cn1c(NC(=O)c2ccc(C(=O)Nc3ccc(-n4cncn4)cc3)s2)nc2ccccc21` [Compound 159]: the IC50 is at least 40 µM.

Take `O=C(Nc1ccc(-n2cncn2)cc1)c1ccc(C(=O)N2CCN(C3CCCC3)CC2)s1` [Compound 152]: the 50% inhibitory concentration (IC50) was at least 40 µM.

As for `O=C(Nc1ccc(-n2cncn2)c(F)c1)c1ccc(C(=O)Nc2ccccc2Cl)s1` [Compound 19], the IC50 was at most 1 µM.

`COc1ccc(C(=O)Nc2ccc(C(=O)Nc3ccc(-n4cncn4)c(F)c3)s2)c(C)c1` [Compound 14] came in with an IC50 of at most 1 µM.

`COc1ccc(NC(=O)c2ccc(C(=O)Nc3ccc(-n4cncn4)c(F)c3)o2)c(C)c1` [Compound 5] had an IC50 of at most 1 µM.

For the compound `O=C(Nc1ccc(-n2cncn2)c(F)c1)c1ccc(C(=O)Nc2ccccc2F)s1` [Compound 37], the IC50 was at most 1 µM.

Regarding `Cc1cc(N[C@H]2CCNC2)ccc1NC(=O)c1ccc(C(=O)Nc2ccc(-n3cncn3)cc2)s1` [Compound 38], the 50% inhibitory concentration (IC50) was at most 1 µM.

`COc1ccc(NC(=O)c2ccc(C(=O)Nc3ccc4ncccc4c3)s2)c(C)c1` [Compound 169] registered an IC50 of at least 40 µM.

Consider `O=C(NC[C@H]1CCCO1)c1ccc(C(=O)Nc2ccc(-n3cncn3)cc2)s1` [Compound 93], for which the half-inhibitory concentration (IC50) was at least 40 µM.

Regarding `O=C(Nc1ccc(-n2cncn2)c(F)c1)c1ccc(C(=O)Nc2ccccc2-n2cccn2)s1` [Compound 208], the IC50 is at least 40 µM.

Consider `O=C(Nc1ccc(-n2cncn2)cc1)c1ccc(C(=O)N2CCOCC2)s1` [Compound 85], for which the IC50 is at least 40 µM.

In the case of `O=C(NCc1nc2ccccc2[nH]1)c1ccc(C(=O)Nc2ccc(-n3cncn3)cc2)s1` [Compound 158], the IC50 is at least 40 µM.

With `O=C(Nc1ccc(-n2cncn2)cc1)c1ccc(C(=O)Nc2cccc(O)c2)s1` [Compound 163], the IC50 was at least 40 µM.

In turn, `COc1ccc(NC(=O)c2ccc(C(=O)Nc3ccc(-n4cncn4)cc3)s2)cc1OC` [Compound 151] came in with an IC50 of at least 40 µM.

On to `O=C(NCCN1CCCCC1)c1ccc(C(=O)Nc2ccc(-n3cncn3)cc2)s1` [Compound 144], for which the IC50 was at least 40 µM.

Compound `COc1ccc(NC(=O)c2ccc(C(=O)Nc3ccc(-n4cncn4)cc3)s2)cc1Cl` [Compound 61] yielded an IC50 of 1 to 40 µM.

`COc1ccc(NC(=O)c2ccc(C(=O)Nc3ccc(-n4cncn4)cc3F)s2)c(C)c1` [Compound 180] returned an IC50 of at least 40 µM.

The compound `CC(=O)N1CCC(NC(=O)c2ccc(C(=O)Nc3ccc(-n4cncn4)cc3)s2)CC1` [Compound 57] showed an IC50 of 1 to 40 µM.

For `CC(CN(C)C)NC(=O)c1ccc(C(=O)Nc2ccc(-n3cncn3)cc2)s1` (centres unmarked) [Compound 95], the half-inhibitory concentration (IC50) is at least 40 µM.

In turn, `COc1cccc(NC(=O)c2ccc(C(=O)Nc3ccc(-n4cncn4)cc3)s2)c1OC` [Compound 59] returned an IC50 of 1 to 40 µM.

The compound `Cc1cc(CN2CCOCC2)ccc1NC(=O)c1ccc(C(=O)Nc2ccc(-n3cncn3)c(F)c2)s1` [Compound 20] showed an IC50 of at most 1 µM.

`CN1CCCC1CCNC(=O)c1ccc(C(=O)Nc2ccc(-n3cncn3)cc2)s1` (centres unmarked) [Compound 145] showed an IC50 of at least 40 µM.

For `O=C(Nc1ccc(-n2cncn2)cc1)c1ccc(C(=O)N2CCCC2c2cccnc2)s1` (centres unmarked) [Compound 150], the IC50 was at least 40 µM.

The compound `COc1ccc(NC(=O)c2ccc(C(=O)Nc3ccc(C(N)=O)cc3)s2)c(C)c1` [Compound 176] returned a 50% inhibitory concentration (IC50) of at least 40 µM.

For the compound `O=C(Nc1ccc(-n2cncn2)cc1)c1ccc(C(=O)NC2CCC2)s1` [Compound 82], the IC50 was at least 40 µM.

`CN(C)CCNC(=O)c1ccc(C(=O)Nc2ccc(-n3cncn3)c(F)c2)o1` [Compound 212] came in with an IC50 of at least 40 µM.

For `COC[C@H](C)NC(=O)c1ccc(C(=O)Nc2ccc(-n3cncn3)cc2)s1` [Compound 88], the IC50 was at least 40 µM.

Consider `C[C@@H](NC(=O)c1ccc(C(=O)Nc2ccc(-n3cncn3)cc2)s1)C1CCCCC1` [Compound 112], for which the IC50 is at least 40 µM.

For the compound `Cc1cc(C)nc(NC(=O)c2ccc(C(=O)Nc3ccc(-n4cncn4)cc3)s2)c1` [Compound 109], the IC50 is at least 40 µM.

Usually IC50 stands for the concentration at which inhibition is half-maximal. A high value points to weaker potency in that assay.
